Test results published in patent US10561676B2, “Method for treating cancer using dual antagonists of CXCR1 and CXCR2” (Syntrix Biosystems, Inc., priority 2018, dated 2020).

Columns and labels:
[1] = system: C3Tag mouse model of breast cancer; test: C3Tag mouse model of breast cancer; assay type: in vivo
Excerpt: The C31-T-antigen (C3Tag) mouse model is a validated model of human triple-negative basal cell breast cancer as shown by gene expression analysis (Maroulakou, 1994, Proc Natl Acad Sci, 91:11236-40, herein incorporated by reference). The expressed large T-antigen binds and inactivates the RB and p53 tumor suppressor genes, explaining why this model faithfully recapitulates human basal breast cancer, which also harbors RB and p53 inactivation. This model also has frequent K-Ras amplification and infrequent Ras mutations. Treatment regimens were started following tumor manifestation. SX-682 was given orally via medicated feed, at an approximate dose of 10 mg/day/mouse. CP was administered once weekly via intraperitoneal injection at a dose of 50 mg/kg.

[2] = system: 60 human tumor cell line panel; test: 60 human tumor cell line panel proliferation (SRB); assay type: cell-based; conditions: 0.01-100 μM, 48 h
Protocol: The chemokine CXCL8 and its receptors CXCR1 and CXCR2 have been identified as important mediators of cellular proliferation for a number of tumor cell types.
The human tumor cell lines of the cancer screening panel were grown in RPMI 1640 medium containing 5% fetal bovine serum and 2 mM L-glutamine. […] After cell inoculation, the microtiter plates were incubated at 37° C., 5% CO2, 95% air and 100% relative humidity for 24 h prior to addition of SX-682.
After 24 h, two plates of each cell line are fixed in situ with TCA, to represent a measurement of the cell population for each cell line at the time of drug addition (Tz). […]
Following drug addition, the plates were incubated for an additional 48 h at 37° C., 5% CO2, 95% air, and 100% relative humidity. […] Bound stain was subsequently solubilized with 10 mM TRIS, and the absorbance was read on an automated plate reader at a wavelength of 515 nm. […] Using the seven absorbance measurements (time zero, (Tz), control growth, (C), and test growth in the presence of drug at the five concentration levels (Ti)), the percentage growth was calculated at each of the drug concentrations levels. Percentage growth inhibition was calculated as: (Ti−Tz)/(C−Tz)×100 for concentrations for which Ti>/=Tz (Ti−Tz)/Tz×100 for concentrations for which Ti<Tz.
Three dose response parameters were calculated for each experimental agent. […]

[3] = SX-682 10 mg/day/mouse oral feed + CP 50 mg/kg weekly i.p.

## O=C(Nc1ccc(F)cc1)c1cnc(SCc2cc(OC(F)(F)F)ccc2B(O)O)nc1 [SX-682, 2-(2-boronic acid-5-trifluoromethoxy-benzylsulfanyl)-pyrimidine-5-carboxylic acid (4-fluoro-phenyl)-amide]
[1]; 10 mg/day/mouse oral feed
  tumor growth vs untreated controls, SX-682 alone: significantly reduced tumor growth
[1]; [3]
  median survival, SX-682 combined with CP: > 60 days
  tumor growth vs untreated controls, SX-682 in combination with carboplatin: significantly reduced tumor growth
[1]; SX-682 10 mg/day/mouse oral, carboplatin 50 mg/kg weekly i.p., vehicle 18 days
  median survival, single agent: 28 days
[2]
  tumor cell proliferation: directly affect the proliferation of human tumor cells
